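Where inhibition never reached the appropriate level, the endpoint shown equals the highest concentration tested. Otherwise, values were interpolated linearly from a five-concentration, 48-hour dose response in 96-well plates. GI50: concentration for 50% inhibition of growth. TGI: total growth inhibition.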

Some test systems named below: PC-3 prostate; SK-MEL-2 melanoma; DU-145 prostate; SNB-75 CNS; CAKI-1 renal; MDA-MB-231 breast; SK-MEL-28 melanoma; IGROV1 ovarian; U251 CNS; SW-620 colon; HCT-116 colon; MDA-MB-435.
Holding throughout (assay): NCI anticancer screen, dose series, 48 h

As for `Cc1csc2c(P(=O)(OC(C)C)OC(C)C)c(-c3ccccc3)cn12`, the TGI came to 28.7 µM with PC-3 prostate; 32.5 µM with SK-MEL-2 melanoma; 32.9 µM with DU-145 prostate; 27.7 µM with SNB-75 CNS; 43.4 µM in the experiment on CAKI-1 renal; 41.1 µM in the experiment with MDA-MB-231 breast. Also, the TGI in the experiment on SK-MEL-28 melanoma amounted to 32.9 µM; in the experiment with IGROV1 ovarian it was 31.9 µM; in the experiment with U251 CNS, 29.5 µM; in the experiment with SW-620 colon, 35.8 µM; in the experiment on HCT-116 colon, 27.4 µM; in the experiment with MDA-MB-435 it was 37.7 µM.

Regarding `O=[N+]([O-])c1cc2n[nH]nc2c2nonc12`, the TGI in the experiment with PC-3 prostate was greater than 100 µM; in the experiment with SK-MEL-2 melanoma it was greater than 100 µM; in the experiment with DU-145 prostate it was greater than 100 µM; in the experiment on SNB-75 CNS, greater than 100 µM; in the experiment on CAKI-1 renal, 77.7 µM; with MDA-MB-231 breast it was greater than 100 µM. In addition, the TGI in the experiment on SK-MEL-28 melanoma was greater than 100 µM; with IGROV1 ovarian, greater than 100 µM; in the experiment with U251 CNS it was greater than 100 µM; in the experiment with SW-620 colon, greater than 100 µM; in the experiment with HCT-116 colon, 43.7 µM; with MDA-MB-435 it was 30.1 µM.

Regarding `O=C(ON=c1c2ccccc2ccc2ccccc12)c1cc([N+](=O)[O-])cc([N+](=O)[O-])c1`, the TGI in the experiment with PC-3 prostate, in the experiment on SK-MEL-2 melanoma, in the experiment with DU-145 prostate, with SNB-75 CNS, in the experiment on MDA-MB-231 breast and in the experiment on SK-MEL-28 melanoma was greater than 100 µM throughout. Further, the TGI with IGROV1 ovarian, in the experiment with U251 CNS, with SW-620 colon, with HCT-116 colon and in the experiment with MDA-MB-435 was greater than 100 µM each time.

As to `COc1ccc2c(c1)/C(=C(\C(Cl)=C(\Cl)N1CCCCC1)[N+](=O)[O-])N2`, the TGI in the experiment with PC-3 prostate, in the experiment on DU-145 prostate, in the experiment on SNB-75 CNS, in the experiment with CAKI-1 renal, in the experiment with MDA-MB-231 breast and in the experiment on SK-MEL-28 melanoma was greater than 100 µM in each case. Besides, the TGI with IGROV1 ovarian, with U251 CNS, with SW-620 colon, in the experiment with HCT-116 colon and with MDA-MB-435 was greater than 100 µM in each case.

As to `C=CCN1CCC(OC(=O)C(O)(/C=C\CC)C2CCCC2)CC1` (stereo unspecified), the TGI with PC-3 prostate, in the experiment on SK-MEL-2 melanoma, in the experiment with DU-145 prostate, in the experiment with SNB-75 CNS, in the experiment on CAKI-1 renal and in the experiment on MDA-MB-231 breast was greater than 100 µM throughout. For the same compound, the TGI with SK-MEL-28 melanoma, in the experiment with IGROV1 ovarian, in the experiment on U251 CNS, with HCT-116 colon and in the experiment with MDA-MB-435 was greater than 100 µM throughout.

As for `C=C1CC(OC(C)=O)/C=C(/C)CCC(C(C)(C)O)CC1O` (stereo unspecified), the TGI in the experiment with PC-3 prostate, in the experiment with SK-MEL-2 melanoma, in the experiment on DU-145 prostate, in the experiment on CAKI-1 renal, with MDA-MB-231 breast and with SK-MEL-28 melanoma was greater than 100 µM each time. Besides, the TGI with IGROV1 ovarian, in the experiment with U251 CNS, with SW-620 colon, in the experiment with HCT-116 colon and with MDA-MB-435 was greater than 100 µM throughout.

`COc1ccc2c(c1)/C(=C(\C(Cl)=C(Cl)Cl)[N+](=O)[O-])N2`: the TGI with PC-3 prostate, in the experiment on DU-145 prostate, with SNB-75 CNS, with CAKI-1 renal, in the experiment with MDA-MB-231 breast and in the experiment on SK-MEL-28 melanoma was greater than 100 µM in each case. Besides, the TGI with IGROV1 ovarian, in the experiment with U251 CNS, in the experiment on SW-620 colon, in the experiment with HCT-116 colon and in the experiment with MDA-MB-435 was greater than 100 µM throughout.

For the compound `CCCCc1ccc(Nc2nc3c(ncn3C3OC(COC(C)=O)C(OC(C)=O)C3OC(C)=O)c(=O)[nH]2)cc1` (stereo unspecified), the TGI with PC-3 prostate is 48.1 µM; with SK-MEL-2 melanoma, 31 µM; in the experiment with DU-145 prostate, 90.6 µM; in the experiment on CAKI-1 renal, greater than 100 µM; with MDA-MB-231 breast it was 31.1 µM; with IGROV1 ovarian, 37.7 µM. For the same compound, the TGI with U251 CNS was found to be 45.4 µM; in the experiment on SW-620 colon, 48.2 µM; with HCT-116 colon, 31.9 µM; in the experiment on MDA-MB-435 it was 34.5 µM.

Consider `CCN(CC)CCN1C(=O)c2cccc3c(-c4ccc5c(c4)ncn5C4CCCCC4)ccc(c23)C1=O`, for which the GI50 in the experiment with PC-3 prostate was 1640 nM; in the experiment with DU-145 prostate, 1590 nM; in the experiment on SNB-75 CNS, 1050 nM; in the experiment on CAKI-1 renal it was 1710 nM; with MDA-MB-231 breast it was 1630 nM; in the experiment on SK-MEL-28 melanoma it was 1630 nM. The GI50 in the experiment with MDA-MB-435 was 1680 nM. Also, the TGI with PC-3 prostate came to 4.66 µM; in the experiment on DU-145 prostate it was 3.2 µM; in the experiment on SNB-75 CNS, 2.4 µM; in the experiment on CAKI-1 renal it was 5.45 µM; in the experiment with MDA-MB-231 breast, 3.19 µM; in the experiment on SK-MEL-28 melanoma, 3.1 µM. For the same compound, the TGI with MDA-MB-435 was found to be 3.22 µM.

Take `O=C(N/N=C(/COc1cccc(Cl)c1)N=Cc1ccncc1)c1ccncc1`: the TGI in the experiment on PC-3 prostate, in the experiment with SK-MEL-2 melanoma, in the experiment with DU-145 prostate, with CAKI-1 renal, with MDA-MB-231 breast and with SK-MEL-28 melanoma was greater than 100 µM throughout. For the same compound, the TGI in the experiment with IGROV1 ovarian, in the experiment on U251 CNS, in the experiment with SW-620 colon, with HCT-116 colon and in the experiment with MDA-MB-435 was greater than 100 µM throughout.

`CSC1=N/C(=C\c2cccs2)C(=O)N1CN1CCOCC1`: the TGI with PC-3 prostate, with SK-MEL-2 melanoma, in the experiment with DU-145 prostate, in the experiment on SNB-75 CNS, in the experiment on MDA-MB-231 breast and with SK-MEL-28 melanoma was greater than 100 µM throughout. In addition, the TGI in the experiment with IGROV1 ovarian, with U251 CNS, in the experiment on SW-620 colon, in the experiment with HCT-116 colon and in the experiment with MDA-MB-435 was greater than 100 µM each time.

Take `COc1cc(Cn2c3c(c4c(CN(C)C)c(O)ccc42)C(=O)c2ccccc2C3=O)cc(OC)c1`: the TGI in the experiment with PC-3 prostate is 35.4 µM; in the experiment on SK-MEL-2 melanoma, 29.8 µM; with DU-145 prostate it was greater than 100 µM; with SNB-75 CNS, 8.07 µM; with CAKI-1 renal, 30.4 µM; with MDA-MB-231 breast it was 40.7 µM. Besides, the TGI was 29.2 µM in the experiment on SK-MEL-28 melanoma; 36.8 µM in the experiment with U251 CNS; 38.5 µM with SW-620 colon; 31.1 µM in the experiment on HCT-116 colon; 37 µM in the experiment with MDA-MB-435.

These data come from PubChem BioAssay (NCI).
